Patent publication US20250114367A1, “METHOD OF TREATING HAIR LOSS DISORDERS” (Sun Pharmaceutical Industries, Inc., priority 2023, published 2025)

Experiments:
[1] = tested on: plasma protein; test: Plasma protein binding of CTP-543 at 2 hours post-dose (renal impairment study); type: in vitro ADME, human; conditions: moderate renal impairment vs matched controls with normal renal function
Description: All subjects had samples collected for PK.

[2] = tested on: adult subjects with moderate to severe AA; test: Phase III trial: Hospital Anxiety and Depression Scale (HADS); type: in vivo, human; conditions: for HADS anxiety scale, LS mean change from baseline / HADS anxiety scale, LS mean treatment group difference from placebo / HADS depression scale, LS mean change from baseline / HADS depression scale, LS mean treatment group difference from placebo: Week 24
Description: The Hospital Anxiety and Depression Scale (HADS) is used to measure anxiety and depression in a general medical population of subjects. HADS comprises of 14 items (7 items each for anxiety and depression), with a score ranging between 0 and 21 for the anxiety and depression subscales. Scores between 8 and 10 indicate a moderate presence of symptoms of anxiety and depression, whereas a score greater than 11 indicates a significant number of symptoms of anxiety and depression that likely correspond with a clinical diagnosis. The total HADS score may be regarded as a global measure of psychological distress (Roberts et al, 2001; Johnston et al, 2000). A negative change in a subject's HADS score from a starting timepoint to an end point during treatment, e.g. from baseline to Week 24 of treatment, indicates an improvement in symptoms of anxiety and depression. The HADS questionnaire was completed by subjects at baseline and Week 24. The term “baseline” as used herein refers to the HADS score (or HADS-A or HADS-D score) determined before administration of Compound (I).
(§1) Approximately 440 adult male and female subjects 18 to 65 years of age, inclusive, with moderate to severe AA participated in the study. Subjects with definitive diagnosis of AA, and at least 50% hair loss, as defined by a SALT score ≥50, who met all of the inclusion criteria and none of the exclusion criteria participated in the study.
(§2) The Screening Period lasted up to 28 days prior to initiation of study drug. […] Randomization was stratified by scalp hair loss into 1 of the following 2 categories: 1) partial scalp hair loss (SALT ≥50 and <95), 2) complete or near complete scalp hair loss (SALT ≥95).
(§3) Additional secondary efficacy endpoints included the following: • Relative change in SALT scores from baseline at Weeks 4, 8, 12, 16, 20, and 24. • Percentage of responders (defined as “much improved” or “very much improved”) using the Clinical Global Impression of Improvement (CGI-I) at Weeks 12, 16, 20, and 24. • Percentage of responders (defined as “much improved” or “very much improved”) using the Patient Global Impression of Improvement (PGI-I) at Weeks 12, 16, 20, and 24. • Change from baseline in the Clinical Global Impression of Severity (CGI-S) at Weeks 12, 16, 20, and 24. • Change from baseline in the Patient Global Impression of Severity (PGI-S) at Weeks 12, 16, 20, and 24. • Change from baseline on the Brigham Eyebrow Tool for Alopecia (BETA) score at Weeks 12 and 24. • Change from baseline on the Brigham Eyelash Tool for Alopecia (BELA) score at Weeks 12 and 24. • Percentage of subjects achieving at least a 75% relative reduction in SALT score from baseline at Weeks 12 and 24. • Percentage of subjects achieving at least a 90% relative reduction in SALT score from baseline at Weeks 12 and 24. • Percentage of responders (defined as “satisfied” or “very satisfied”) on the SPRO scale at Weeks 12, 16, and 20. • Change from baseline in the SPRO scale at Weeks 12, 16, 20, and 24. • Percentage of subjects achieving a ≥2-point change from baseline in the SPRO scale at Weeks 12, 16, 20, and 24. • Change from baseline on the individual items of the Hair Quality Patient Reported Outcome (QPRO) scale at Weeks 12, 16, 20, and 24. • Change from baseline in the depression scale of the Hospital Anxiety and Depression Scale (HADS) at Week 24. • Change from baseline in the anxiety scale of the HADS at Week 24. • Percentage of subjects achieving an absolute SALT score of ≤20 at Week 4. • Percentage of subjects achieving an absolute SALT score of ≤10 at Week 24
Changes from baseline to Week 24 in the depression scale of subjects who were randomized to treatment with deuruxolitinib 8 mg twice daily (BID), deuruxolitinib 12 mg BID, or placebo for 24 weeks were measured. Subjects completed the HADS 14-item questionnaire with 7 items for anxiety (HADS-A) and 7 items for depression (HADS-D).

[3] = tested on: adult subjects with moderate to severe AA; test: Phase III trial: Patient Global Impression of Severity (PGI-S); type: in vivo, human
Experimental: The PGI-S was assessed by the subject and considered the severity of his/her alopecia areata at the time of assessment. The subject selected 1 of 7 numeric choices representing “Among the most extreme hair loss” to “Normal, no hair loss.” The definitions of the numeric choices is as follows: 1=normal, no hair loss; 2=borderline hair loss; 3=mild hair loss; 4=moderately hair loss; 5=marked hair loss; 6=severe hair loss; 7=among the most extreme hair loss.
as §1, with “A Phase III trial was conducted to assess the efficacy and safety of CTP-543 in adult subjects with moderate to severe AA. Approximately” for “Approximately”
as §2, §3
A decrease from baseline indicates improvement (impression is decreased severity). The LS mean treatment group difference was in favor of the CTP-543 groups over the placebo group at all timepoints evaluated. […] Detailed data for each time point are described below.

## [2H]C1([2H])C([C@@H](CC#N)n2cc(-c3ncnc4[nH]ccc34)cn2)C([2H])([2H])C([2H])([2H])C1([2H])[2H] [CTP-543, (R)-3-(4-(7H-pyrrolo[2,3-d]pyrimidin-4-yl)-1H-pyrazol-1-yl)-3-(cyclopentyl-2,2,3,3,4,4,5,5-d8) propanenitrile]
[1]
  differences in plasma protein binding between cohorts: no meaningful differences
[2]; 8 mg BID
  HADS anxiety scale, LS mean change from baseline: −1.1
  HADS anxiety scale, LS mean treatment group difference from placebo: 0.5
  HADS depression scale, LS mean change from baseline: −1.2
  HADS depression scale, LS mean treatment group difference from placebo: 0.8
[2]; 12 mg BID
  HADS anxiety scale, LS mean change from baseline: −0.9
  HADS anxiety scale, LS mean treatment group difference from placebo: 0.2
  HADS depression scale, LS mean change from baseline: −1.5
  HADS depression scale, LS mean treatment group difference from placebo: 1.1
[2]; baseline to Week 24, 8 mg BID
  subjects achieving a ≥3-point improvement in the HADS-D score: 26.2%
  subjects achieving a ≥4-point improvement in the HADS-A score: 18.9%
[3]; Week 12, 8 mg BID
  PGI-S, LS mean change from baseline: −1.6
[3]; Week 12, 12 mg BID
  PGI-S, LS mean change from baseline: −1.8
[3]; Week 16, 12 mg BID
  PGI-S, LS mean change from baseline: −2.0
[3]; Week 20, 8 mg BID
  PGI-S, LS mean change from baseline: −2.0
[3]; Week 20, 12 mg BID
  PGI-S, LS mean change from baseline: −2.2
[3]; Week 24, 8 mg BID
  PGI-S, LS mean change from baseline: −2.2
[3]; Week 24, 12 mg BID
  PGI-S, LS mean change from baseline: −2.5
